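Values below derive from 48-hour exposures of cells grown in 96-well plates, with endpoints linearly interpolated between the two concentrations bracketing the appropriate inhibition level. Here, GI50 denotes the concentration required for 50% inhibition of growth. The concentration for full growth arrest is given as TGI.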

The source of these data is PubChem BioAssay (NCI).

Some test systems named below: IGROV1 ovarian; HT29 colon; SNB-75 CNS; PC-3 prostate; U251 CNS; HL-60(TB) leukemia; A549 NSCLC; SN12C renal; NCI-H23 lung; OVCAR-4 ovarian.
Common to all, as to experiment: inhibition of tumour cell growth, NCI panel, 48 h

On to `CC(C)(C)[OH+][O-].[O-]c1ccc(Cl)cc1C=Nc1ccc(Cl)cc1[O-].[O]=[V]`, for which the GI50 is 0.542 µM in the assay on IGROV1 ovarian; 21.9 µM in the assay with HT29 colon; 12.1 µM with SNB-75 CNS; 26.1 µM with PC-3 prostate; 20.2 µM with U251 CNS; 24.7 µM with HL-60(TB) leukemia. Also, the figures for the GI50 in the assay with A549 NSCLC, with SN12C renal and with NCI-H23 lung were 17.1 µM, 24.2 µM and 20.4 µM, respectively. The TGI with IGROV1 ovarian is 14.2 µM; in the assay on HT29 colon, 67.3 µM; in the assay on SNB-75 CNS, 30.8 µM; in the assay on PC-3 prostate it was over 100 µM; in the assay with U251 CNS, 69.2 µM; in the assay with HL-60(TB) leukemia it was over 100 µM. For the same molecule, the TGI in the assay with A549 NSCLC was over 100 µM; in the assay on SN12C renal, over 100 µM; in the assay on NCI-H23 lung it was 66.9 µM.
In the case of `CC(C)(C)[Si](C)(C)OCC1CCC(n2cnc3c(NC(=O)c4ccccc4)ncnc32)O1` (configuration not stated), the TGI in the assay with IGROV1 ovarian was 32.7 µM; in the assay on HT29 colon it was 33.6 µM; in the assay with SNB-75 CNS, 25.6 µM; with PC-3 prostate, 52.6 µM; with U251 CNS it was 32.9 µM; in the assay with HL-60(TB) leukemia it was 38.2 µM. The TGI with A549 NSCLC turned out to be 39.9 µM; in the assay on SN12C renal it was 34 µM; in the assay on OVCAR-4 ovarian it was 39.5 µM; in the assay on NCI-H23 lung, 37.4 µM.
On to `CC(C)C[C@H](NC(=O)[C@H](Cc1ccccc1)n1ccc(N2CCCCC2)cc1=O)B(O)O`, for which the GI50 in the assay on IGROV1 ovarian is 5.1 µM; in the assay with HT29 colon, 0.449 µM; with SNB-75 CNS, 0.461 µM; in the assay on PC-3 prostate, 4.19 µM; in the assay with U251 CNS it was 1.18 µM; in the assay with A549 NSCLC it was 2.39 µM. The GI50 was 1.5 µM in the assay with SN12C renal, 2.06 µM with OVCAR-4 ovarian and 1.59 µM in the assay with NCI-H23 lung. For the same molecule, the TGI is over 100 µM in the assay with IGROV1 ovarian; over 100 µM in the assay with HT29 colon; 3.82 µM with SNB-75 CNS; over 100 µM in the assay on PC-3 prostate; over 100 µM with U251 CNS; over 100 µM with A549 NSCLC. Also, the TGI was 11.1 µM in the assay on SN12C renal, over 100 µM with OVCAR-4 ovarian and over 100 µM in the assay on NCI-H23 lung.
On to `O=C1/C(=C/c2cccc([N+](=O)[O-])c2)COc2ccc(O)c(O)c21`, for which the GI50 in the assay on IGROV1 ovarian was 1.02 µM; in the assay on HT29 colon, 2.89 µM; with SNB-75 CNS, 1.28 µM; with PC-3 prostate, 1.16 µM; with U251 CNS, 1.17 µM; in the assay on HL-60(TB) leukemia, 2.29 µM. Besides, the GI50 is 2.06 µM with A549 NSCLC, 1.16 µM with SN12C renal, 1.46 µM in the assay on OVCAR-4 ovarian and 1.75 µM in the assay on NCI-H23 lung. The TGI was determined as 2.97 µM in the assay with IGROV1 ovarian; 19.1 µM in the assay with HT29 colon; 5.72 µM with SNB-75 CNS; 4.14 µM in the assay on PC-3 prostate; 2.64 µM with U251 CNS; 7.14 µM in the assay on HL-60(TB) leukemia. In addition, the TGI is 6.37 µM in the assay with A549 NSCLC, 2.51 µM in the assay with SN12C renal, 2.8 µM in the assay with OVCAR-4 ovarian and 3.95 µM in the assay on NCI-H23 lung.
In the case of `Cc1ccc(NC(c2ccccc2)c2ccc3cccnc3c2O)cc1` (configuration not stated), the TGI is 14 µM in the assay with IGROV1 ovarian; 13.6 µM in the assay on HT29 colon; 19.2 µM in the assay with SNB-75 CNS; 14.3 µM in the assay on PC-3 prostate; 10.9 µM with U251 CNS; 11.7 µM with HL-60(TB) leukemia. In addition, the TGI amounted to 41.3 µM in the assay on A549 NSCLC, 22.4 µM in the assay with SN12C renal, 16.4 µM in the assay with OVCAR-4 ovarian and 19.2 µM in the assay with NCI-H23 lung.
On to `C=C1C(=O)O[C@@H]2C[C@@H]1CC[C@]1(C)O[C@H]1CC[C@@]1(C)O[C@@H]1CC[C@@]2(C)O`, for which the GI50 was 24.3 µM with IGROV1 ovarian; 24.7 µM in the assay with HT29 colon; 21.2 µM in the assay on PC-3 prostate; 42.8 µM in the assay on U251 CNS; 15.2 µM in the assay with HL-60(TB) leukemia; over 100 µM in the assay on A549 NSCLC. For the same molecule, the GI50 in the assay with SN12C renal is 22.5 µM; in the assay on OVCAR-4 ovarian it was 13.7 µM. Moreover, the TGI in the assay with IGROV1 ovarian was over 100 µM; in the assay with HT29 colon, 87.6 µM; with PC-3 prostate it was 94.9 µM; in the assay on U251 CNS, over 100 µM; in the assay on HL-60(TB) leukemia it was 46.5 µM; in the assay with A549 NSCLC it was over 100 µM. The TGI stood at 61.5 µM with SN12C renal and 33.1 µM in the assay on OVCAR-4 ovarian.
Take `CN(C)CCNC(=O)c1ccc(Nc2nc3ccccc3c3occc23)cc1`: the GI50 in the assay on IGROV1 ovarian was 2.18 µM; with HT29 colon, 6.31 µM; in the assay with SNB-75 CNS, 10.5 µM; in the assay with PC-3 prostate it was 3 µM; in the assay on U251 CNS, 2.45 µM; in the assay with A549 NSCLC, 4.08 µM. Besides, the GI50 in the assay on SN12C renal was 2.5 µM; with OVCAR-4 ovarian, 26.7 µM; with NCI-H23 lung, 8.36 µM. The TGI with IGROV1 ovarian is 10.3 µM; with HT29 colon, over 100 µM; in the assay on SNB-75 CNS it was 25.5 µM; in the assay on PC-3 prostate, 14.3 µM; in the assay on U251 CNS, 6.35 µM; in the assay with A549 NSCLC it was 16.1 µM. Also, the TGI is 7.87 µM in the assay with SN12C renal, over 100 µM in the assay on OVCAR-4 ovarian and 21.3 µM in the assay on NCI-H23 lung.
Regarding `O=C1c2ccccc2-c2c1c1ccccc1c(=O)n2Cc1ccco1`, the TGI in the assay on IGROV1 ovarian, in the assay with HT29 colon, in the assay on SNB-75 CNS, with PC-3 prostate, in the assay with U251 CNS and in the assay on HL-60(TB) leukemia was over 100 µM throughout. Besides, the TGI in the assay with A549 NSCLC, with SN12C renal and in the assay with NCI-H23 lung was over 100 µM each time.
In the case of `Cn1c(C(N)=O)cc2c1-c1nc(Nc3ccccc3)ncc1CCC2`, the GI50 is 3.87 µM with IGROV1 ovarian; 10.6 µM in the assay with HT29 colon; 1.61 µM in the assay on SNB-75 CNS; 5.19 µM in the assay with PC-3 prostate; 3.55 µM in the assay with U251 CNS; 6.77 µM in the assay with HL-60(TB) leukemia. The GI50 was 3.67 µM in the assay with A549 NSCLC, 4.18 µM in the assay on SN12C renal and 4.91 µM with NCI-H23 lung. Moreover, the TGI was 24.2 µM in the assay on IGROV1 ovarian; 34.7 µM with HT29 colon; 8.35 µM in the assay with SNB-75 CNS; 41.6 µM in the assay on PC-3 prostate; over 100 µM in the assay on U251 CNS; 49.7 µM in the assay with HL-60(TB) leukemia. Also, the TGI was 22 µM in the assay on A549 NSCLC, over 100 µM with SN12C renal and 32.9 µM with NCI-H23 lung.
